Measurements published in US8124744B2, “Macrolide derivatives” (Taisho Pharmaceutical Co., Ltd., priority 2006, dated 2012).

What was measured:
[1] = tested on: pro MMP-9 protein; assay: Inhibitory activity against proMMP-9 protein production (TNF α-stimulated mouse peritoneal exudate cells, ELISA); format: cell-based, C57BL/6J mice; settings: relative activity when the value of Comparative Agent 1 (IC50 = 10.04 ± 4.11 μM) is 10, on the increase of pro MMP-9 by TNF α 25 ng/ml, 24 hours, read-out: IC50 (μM)*
Procedure: (§1) To 7- to 9-week male C57BL/6J mice (purchased from CLEA Japan, Inc. or Japan SLC, Inc.), Zymosan A (SIGMA) derived from budding yeasts which is adjusted to be 1 mg/ml in a phosphate buffer solution (PBS, 10010-49, Invitrogen) was administered intraperitoneally at 1 ml per mouse to induce peritonitis. Three days later, filter-sterilized cell recovery buffer (2 mM EDTA, 0.5% bovine serum albumin, PBS, pH 7.4) was administered intraperitoneally at 5 ml per mouse to recover peritoneal exudata cells. The cells went through a cell strainer (70 μm nylon, FALCON) and were then washed twice with a Hanks solution (Invitrogen). The cells were suspended in 10% fetal calf serum-containing Dulbecco's modified Eagle's culture medium (Invitrogen). The suspension was seeded on a plate with 48 wells, after 6 hours, the culture medium was completely exchanged. After culturing for another 18 hours, test compounds were added at 0.02 to 20 μM of the final concentration. After 1 hour from the addition of the compounds, a tumor necrosis factor (TNF) α (R & D Systems) was added at 25 ng/ml of the final concentration, and 24 hours later, the culture supernatant was collected. The amount of pro MMP-9 protein in the supernatant was quantified by an enzyme-linked immunosorbent assay (ELISA) (R & D Systems), IC50 values of the test compounds on the increased amount by TNF α stimuli, were calculated by ORIGIN analysis software (trade name: OriginLab). In addition, minimal inhibitory concentration (MIC) of each test compounds (measured bacterium: Staphylococcus aureus ATCC29213) was measured. As a comparative agent […] A (clarithromycin) was used.

[2] = tested on: Staphylococcus aureus ATCC29213; assay: Minimal inhibitory concentration (MIC); format: cell-based
Procedure: as §1

SMILES: CC[C@H]1OC(=O)[C@H](C)[C@@H](O[C@H]2C[C@@](C)(OC)[C@@H](O)[C@H](C)O2)[C@H](C)[C@@H](O[C@@H]2O[C@H](C)C[C@@H](N(C)Cc3ccccn3)[C@@H]2N(C)C)[C@@](C)(OC)C[C@@H](C)C(=O)[C@H](C)[C@@H](O)[C@]1(C)O [Example 192, 3′-N-demethyl-2′-deoxy-2′-dimethylamino-3′-N-(2-pyridylmethyl)-6-O-methylerythromycin A]
- IC50 [1]: 2.46 µM
- MIC [2]: > 128 mg/L

SMILES: CC[C@H]1OC(=O)[C@H](C)[C@@H](O[C@H]2C[C@@](C)(OC)[C@@H](O)[C@H](C)O2)[C@H](C)[C@@H](O[C@@H]2O[C@H](C)C[C@H](N(C)CCCN3CCOCC3)[C@H]2OC)[C@@](C)(OC)C[C@@H](C)C(=O)[C@H](C)[C@@H](O)[C@]1(C)O [Example 131, 3′-N-demethyl-3′-N-(3-(4-morpholino)propyl)-6,2′-di-O-methylerythromycin A]
- IC50 [1]: 3.33 µM
- MIC [2]: > 128 mg/L

SMILES: CC[C@H]1OC(=O)[C@H](C)[C@@H](O[C@H]2C[C@@](C)(OC)[C@@H](O)[C@H](C)O2)[C@H](C)[C@@H](O[C@@H]2O[C@H](C)C[C@@H](N(C)Cc3ccncc3)[C@@H]2N(C)C)[C@@](C)(OC)C[C@@H](C)C(=O)[C@H](C)[C@@H](O)[C@]1(C)O [Example 188, 3′-N-demethyl-2′-deoxy-2′-dimethylamino-3′-N-(4-pyridylmethyl)-6-O-methylerythromycin A]
- IC50 [1]: 3.24 µM
- MIC [2]: > 128 mg/L

SMILES: CC[C@H]1OC(=O)[C@H](C)[C@@H](O[C@H]2C[C@@](C)(OC)[C@@H](O)[C@H](C)O2)[C@H](C)[C@@H](O[C@@H]2O[C@H](C)C[C@H](N(C)C)[C@H]2OCCCN(C)C)[C@@](C)(OC)C[C@@H](C)C(=O)[C@H](C)[C@@H](O)[C@]1(C)O [Example 115, 2′-O-(3-dimethylaminopropyl)-6-O-methylerythromycin A]
- IC50 [1]: 3.88 µM
- MIC [2]: > 128 mg/L

SMILES: CC[C@H]1OC(=O)[C@H](C)[C@@H](O[C@H]2C[C@@](C)(OC)[C@@H](O)[C@H](C)O2)[C@H](C)[C@@H](O[C@@H]2O[C@H](C)C[C@@H](N(C)CCCO)[C@@H]2N(C)C)[C@@](C)(OC)C[C@@H](C)C(=O)[C@H](C)[C@@H](O)[C@]1(C)O [Example 199, 3′-N-demethyl-2′-deoxy-2′-dimethylamino-3′-N-(3-hydroxypropyl)-6-O-methylerythromycin A]
- IC50 [1]: 3.6 µM
- MIC [2]: > 128 mg/L

SMILES: CC[C@H]1OC(=O)[C@H](C)[C@@H](O[C@H]2C[C@@](C)(OC)[C@@H](OC(C)=O)[C@H](C)O2)[C@H](C)[C@@H](O[C@@H]2O[C@H](C)C[C@H](N(C)C)[C@H]2OC)[C@@](C)(OC)C[C@@H](C)[C@H](OC(=O)CCN(C)C)[C@H](C)[C@@H](O)[C@]1(C)O [Compound V of Example 147, 4″-O-acetyl-9-deoxo-9-(S)-(3-dimethylaminopropionyloxy)-6,2′-di-O-methylerythromycin A]
- IC50 [1]: 2.61 µM
- MIC [2]: > 128 mg/L

SMILES: CC[C@H]1OC(=O)[C@H](C)[C@@H](O[C@H]2C[C@@](C)(OC)[C@@H](O)[C@H](C)O2)[C@H](C)[C@@H](O[C@@H]2O[C@H](C)C[C@H](N(C)C)[C@H]2OC)[C@@](C)(OC)C[C@@H](C)[C@H](N)[C@H](C)[C@@H](O)[C@]1(C)O [Compound T of Example 142, 9-deoxo-9-(S)-amino-6,2′-di-O-methylerythromycin A]
- IC50 [1]: 8.88 µM
- MIC [2]: > 128 mg/L

SMILES: CC[C@H]1OC(=O)[C@H](C)[C@@H](O[C@H]2C[C@@](C)(OC)[C@@H](O)[C@H](C)O2)[C@H](C)[C@@H](O[C@@H]2O[C@H](C)C[C@@H](N3CCOCC3)[C@@H]2N(C)C)[C@@](C)(O)C[C@@H](C)CN(C)[C@H](C)[C@@H](O)[C@]1(C)O [Example 213, 3′-dedimethylamino-2′-deoxy-2′-dimethylamino-3′-(4-morpholino)-9-deoxo-9a-aza-9a-methyl-9a-homoerythromycin A]
- IC50 [1]: 0.77 µM
- MIC [2]: > 128 mg/L

SMILES: CC[C@H]1OC(=O)[C@H](C)[C@@H](O[C@H]2C[C@@](C)(OC)[C@@H](OC(C)=O)[C@H](C)O2)[C@H](C)[C@@H](O[C@@H]2O[C@H](C)C[C@H](N(C)C)[C@H]2OCCCN2CCC(O)CC2)[C@@](C)(OC)C[C@@H](C)C(=O)[C@H](C)[C@@H](O)[C@]1(C)O [Example 122, 4″-O-acetyl-2′-O-(3-(4-hydropiperidin-1-yl)propyl)-6-O-methylerythromycin A]
- IC50 [1]: 3.06 µM
- MIC [2]: > 128 mg/L

SMILES: CC[C@H]1OC(=O)[C@H](C)[C@@H](O[C@H]2C[C@@](C)(OC)[C@@H](O)[C@H](C)O2)[C@H](C)[C@@H](O[C@@H]2O[C@H](C)C[C@@H](N(C)CCc3ccccc3)[C@@H]2N(C)C)[C@@](C)(OC)C[C@@H](C)C(=O)[C@H](C)[C@@H](O)[C@]1(C)O [Example 194, 3′-N-demethyl-2′-deoxy-2′-dimethylamino-3′-N-(2-phenethyl)-6-O-methylerythromycin A]
- IC50 [1]: 1.23 µM
- MIC [2]: > 128 mg/L

SMILES: CC[C@H]1OC(=O)[C@H](C)[C@@H](O[C@H]2C[C@@](C)(OC)[C@@H](OC(C)=O)[C@H](C)O2)[C@H](C)[C@@H](O[C@@H]2O[C@H](C)C[C@H](N(C)CCN(C)C)[C@H]2O)[C@@](C)(OC)C[C@@H](C)C(=O)[C@H](C)[C@@H](O)[C@]1(C)O [Example 214, 4″-O-acetyl-3′-N-demethyl-3′-N-(2-dimethylaminoethyl)-6-methylerythromycin A]
- IC50 [1]: 2.73 µM
- MIC [2]: > 128 mg/L

SMILES: CC[C@H]1OC(=O)[C@H](C)[C@@H](O[C@H]2C[C@@](C)(OC)[C@@H](O)[C@H](C)O2)[C@H](C)[C@@H](O[C@@H]2O[C@H](C)C[C@H](N(C)CCCOCc3ccccc3)[C@H]2OC)[C@@](C)(OC)C[C@@H](C)C(=O)[C@H](C)[C@@H](O)[C@]1(C)O [Example 129, 3′-N-demethyl-3′-N-(3-benzyloxypropyl)-6,2′-di-O-methylerythromycin A]
- IC50 [1]: < 1.04 µM
- MIC [2]: > 128 mg/L

SMILES: CC[C@H]1OC(=O)[C@H](C)[C@@H](O[C@H]2C[C@@](C)(OC)[C@@H](OC(C)=O)[C@H](C)O2)[C@H](C)[C@@H](O[C@@H]2O[C@H](C)C[C@H](N(C)CCCOC(C)=O)[C@H]2OC)[C@@](C)(OC)C[C@@H](C)C(=O)[C@H](C)[C@@H](O)[C@]1(C)O [Example 136, 4″-O-acetyl-3′-N-demethyl-3′-N-(3-acetoxypropyl)-6,2′-di-O-methylerythromycin A]
- IC50 [1]: 2.12 µM
- MIC [2]: > 128 mg/L

SMILES: CC[C@H]1OC(=O)[C@H](C)[C@@H](O[C@H]2C[C@@](C)(OC)[C@@H](OC(C)=O)[C@H](C)O2)[C@H](C)[C@@H](O[C@@H]2O[C@H](C)C[C@H](N(C)C)[C@H]2OC)[C@@](C)(OC)C[C@@H](C)[C@H](OC(=O)CCN(C)C)[C@H](C)[C@@H](OC(=O)CCN(C)C)[C@]1(C)O [Compound W of Example 147, 4″-O-acetyl-9-deoxo-9-(S)-(3-dimethylaminopropionyloxy)-11-O-(3-dimethylaminopropionyl)-6,2′-di-O-methylerythromycin A]
- IC50 [1]: 6.56 µM
- MIC [2]: > 128 mg/L

SMILES: CC[C@H]1OC(=O)[C@H](C)[C@@H](O[C@H]2C[C@@](C)(OC)[C@@H](O)[C@H](C)O2)[C@H](C)[C@@H](O[C@@H]2O[C@H](C)C[C@@H](N(C)Cc3ccccc3)[C@@H]2N(C)C)[C@@](C)(OC)C[C@@H](C)C(=O)[C@H](C)[C@@H](O)[C@]1(C)O [Example 171, 3′-N-demethyl-2′-deoxy-2′-dimethylamino-3′-N-benzyl-6-O-methylerythromycin A]
- IC50 [1]: 1.45 µM
- MIC [2]: > 128 mg/L
